The values below come from ChEMBL document CHEMBL2074266, “Molecular cloning and characterization of multispecific organic anion transporter 4 expressed in the placenta” (J Biol Chem, 2000).

Data set [1] addresses T1, Solute carrier family 22 member 11 (Homo sapiens, UniProt Q9NSA0).
T1 sequence (Q9NSA0 whole entry): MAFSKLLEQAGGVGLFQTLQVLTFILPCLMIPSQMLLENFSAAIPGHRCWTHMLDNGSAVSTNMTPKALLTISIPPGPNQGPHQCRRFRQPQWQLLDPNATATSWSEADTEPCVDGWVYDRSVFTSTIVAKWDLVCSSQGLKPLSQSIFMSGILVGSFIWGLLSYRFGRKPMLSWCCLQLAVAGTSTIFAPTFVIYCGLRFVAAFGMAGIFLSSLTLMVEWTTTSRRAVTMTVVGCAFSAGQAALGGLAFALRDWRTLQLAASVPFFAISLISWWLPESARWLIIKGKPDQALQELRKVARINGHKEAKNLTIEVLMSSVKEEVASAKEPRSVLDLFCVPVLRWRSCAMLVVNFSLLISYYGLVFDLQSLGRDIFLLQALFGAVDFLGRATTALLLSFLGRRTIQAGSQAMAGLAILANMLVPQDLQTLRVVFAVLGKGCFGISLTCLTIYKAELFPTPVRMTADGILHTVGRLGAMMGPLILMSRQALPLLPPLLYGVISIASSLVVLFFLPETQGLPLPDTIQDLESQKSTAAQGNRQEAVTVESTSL
Description: TP_TRANSPORTER: inhibition of E1S uptake (E1S: 0.05 uM, beta-estradiol sulfate: 500 uM) in Xenopus laevis oocytes. The format is functional, cell-based. Conditions: oocyte.

The target of data set [2] is T1, Solute carrier family 22 member 11. Description: TP_TRANSPORTER: inhibition of E1S uptake (E1S: 0.05 uM, Estradiol-3-glucuronide: 500 uM) in Xenopus laevis oocytes. The format is functional, cell-based. The settings on record: oocyte.
Data set [3] has the same target. The experiment in a line: TP_TRANSPORTER: inhibition of E1S uptake (E1S: 0.05 uM, alpha-naphthyl beta-D-glucuronide: 500 uM) in Xenopus laevis oocytes. The settings on record: oocyte. The format is functional, cell-based.
Data set [4] shares this target. Description: TP_TRANSPORTER: inhibition of E1S uptake (E1S: 0.05 uM, 4-methylumbelliferyl sulfate: 500 uM) in Xenopus laevis oocytes. The format is functional, cell-based. The settings on record: oocyte.
The target is the same in data set [5]. The experiment in a line: TP_TRANSPORTER: inhibition of E1S uptake (E1S: 0.05 uM, 4-methylumbeliferone glucuronide: 500 uM) in Xenopus laevis oocytes. The format is functional, cell-based. The settings on record: oocyte.
The target is the same in data set [6]. The experiment in a line: TP_TRANSPORTER: inhibition of E1S uptake (E1S: 0.05 uM, p-Nitrophenyl glucuronide: 500 uM) in Xenopus laevis oocytes. The format is functional, cell-based. Conditions: oocyte.
Data set [7] has the same target. Description: (§1) TP_TRANSPORTER: uptake in Xenopus laevis oocytes. The format is functional, cell-based. Conditions: oocyte.
The target is the same in data set [8]. Description: TP_TRANSPORTER: inhibition of E1S uptake (E1S: 0.05 uM, Acetaminophen glucuronide: 500 uM) in Xenopus laevis oocytes. The format is functional, cell-based. Conditions: oocyte.
Data set [9] has the same target. The experiment in a line: TP_TRANSPORTER: inhibition of E1S uptake (E1S: 0.05 uM, Bumetanide: 500 uM) in Xenopus laevis oocytes. The format is functional, cell-based. The settings on record: oocyte.
For data set [10] the target is unchanged. The experiment in a line: TP_TRANSPORTER: inhibition of E1S uptake (E1S: 0.05 uM, Corticosterone: 500 uM) in Xenopus laevis oocytes. The format is functional, cell-based. Conditions: oocyte.
The target is the same in data set [11]. The experiment in a line: TP_TRANSPORTER: inhibition of E1S uptake (E1S: 0.05 uM, Diclofenac: 500 uM) in Xenopus laevis oocytes. The format is functional, cell-based. Conditions: oocyte.
For data set [12] the target is unchanged. Description: TP_TRANSPORTER: inhibition of E1S uptake (E1S: 0.05 uM, beta-Estradiol: 500 uM) in Xenopus laevis oocytes. The settings on record: oocyte. The format is functional, cell-based.
For data set [13] the target is unchanged. The experiment in a line: TP_TRANSPORTER: inhibition of E1S uptake (E1S: 0.05 uM, Furosemide: 500 uM) in Xenopus laevis oocytes. The format is functional, cell-based. The settings on record: oocyte.
The target is the same in data set [14]. Description: TP_TRANSPORTER: inhibition of E1S uptake (E1S: 0.05 uM, Glutarate: 500 uM) in Xenopus laevis oocytes. The settings on record: oocyte. The format is functional, cell-based.
The target is the same in data set [15]. The experiment in a line: TP_TRANSPORTER: inhibition of E1S uptake (E1S: 0.05 uM, Ibuprofen: 500 uM) in Xenopus laevis oocytes. The format is functional, cell-based. The settings on record: oocyte.
The target is the same in data set [16]. Description: TP_TRANSPORTER: inhibition of E1S uptake (E1S: 0.05 uM, Indomethacin: 500 uM) in Xenopus laevis oocytes. The format is functional, cell-based. The settings on record: oocyte.
For data set [17] the target is unchanged. The experiment in a line: TP_TRANSPORTER: inhibition of E1S uptake (E1S: 0.05 uM, DHEAS: 500 uM) in Xenopus laevis oocytes. The format is functional, cell-based. Conditions: oocyte.
For data set [18] the target is unchanged. The experiment in a line: TP_TRANSPORTER: inhibition of E1S uptake (E1S: 0.05 uM, BSP: 100 uM) in Xenopus laevis oocytes. The format is functional, cell-based. Conditions: oocyte.
Substrate in data set [19]: C[C@]12CC[C@@H]3c4ccc(OS(=O)(=O)O)cc4CC[C@H]3[C@@H]1CCC2=O
The description is as §1. The format is functional, cell-based, Oocyte.

Substrate in data set [20]: [H][C@@]12CC=C3C[C@@H](OS(=O)(=O)O)CC[C@]3(C)[C@@]1([H])CC[C@]1(C)C(=O)CC[C@@]21[H]
The description is as §1. The format is functional, cell-based, Oocyte.

One may read the Km as the concentration of substrate that gives half-maximal velocity.

For `C[C@]12CC[C@@H]3c4ccc(OS(=O)(=O)O)cc4CC[C@H]3[C@@H]1CC[C@@H]2O`, the Activity result in data set [1] is “inhibitor [(at a rough estimate) 25 % of control]”. As to `C[C@]12CC[C@@H]3c4ccc(O[C@@H]5O[C@H](C(=O)O)[C@@H](O)[C@H](O)[C@H]5O)cc4CC[C@H]3[C@@H]1CC[C@@H]2O`, the Activity entry in data set [2] was “is not an inhibitor [-]”. For `O=C(O)[C@H]1O[C@@H](Oc2cccc3ccccc23)[C@H](O)[C@@H](O)[C@@H]1O`, in [3], the Activity entry is “is not an inhibitor [-]”. As to `Cc1cc(=O)oc2cc(OS(=O)(=O)O)ccc12`, the Activity result in data set [4] was “inhibitor [(at a rough estimate) 40 % of control]”. Regarding `O=C(O)[C@H]1O[C@@H](OCc2cc(=O)oc3cc(O)ccc23)[C@H](O)[C@@H](O)[C@@H]1O`, the Activity entry in data set [5] was “is not an inhibitor [-]”. For the molecule `O=C(O)[C@H]1O[C@@H](Oc2ccc([N+](=O)[O-])cc2)[C@H](O)[C@@H](O)[C@@H]1O`, in data set [6], the Activity result was “is not an inhibitor [-]”. Take `C[C@@H]1Cc2c(Cl)cc(C(=O)N[C@@H](Cc3ccccc3)C(=O)O)c(O)c2C(=O)O1` [3R14S-OCHRATOXIN A]: the Activity result in data set [7] is “substrate [+]”. On to `CC(=O)Nc1ccc(O[C@@H]2O[C@H](C(=O)O)[C@@H](O)[C@H](O)[C@H]2O)cc1` [ACETAMINOPHEN GLUCURONIDE], for which the Activity result in data set [8] is “is not an inhibitor [-]”.

Regarding `Nc1ccc(C(=O)NCC(=O)O)cc1` [AMINOHIPPURIC ACID], the Activity result in data set [7] is “substrate [+]”.

Regarding `CCCCNc1cc(C(=O)O)cc(S(N)(=O)=O)c1Oc1ccccc1` [BUMETANIDE], the Activity result in data set [9] is “inhibitor [(at a rough estimate) 15 % of control]”. As for `C[C@]12C[C@H](O)[C@H]3[C@@H](CCC4=CC(=O)CC[C@@]43C)[C@@H]1CC[C@@H]2C(=O)CO` [CORTICOSTERONE], in [10], the Activity result was “inhibitor [(at a rough estimate) 30 % of control]”. Take `O=C(O)Cc1ccccc1Nc1c(Cl)cccc1Cl` [DICLOFENAC]: the Activity result in data set [11] is “inhibitor [(at a rough estimate) 5 % of control]”.

With `C[C@]12CC[C@@H]3c4ccc(O)cc4CC[C@H]3[C@@H]1CC[C@@H]2O` [ESTRADIOL], in data set [12], the Activity result was “is not an inhibitor [-]”. Turning to `NS(=O)(=O)c1cc(C(=O)O)c(NCc2ccco2)cc1Cl` [FUROSEMIDE], in [13], the Activity result is “inhibitor [(at a rough estimate) 5 % of control]”.

On to `O=C(O)CCCC(=O)O` [GLUTARATE], for which the Activity entry in data set [14] is “is not an inhibitor [-]”.

`CC(C)Cc1ccc(C(C)C(=O)O)cc1` (stereo unspecified) [IBUPROFEN]: the Activity result in data set [15] is “inhibitor [(at a rough estimate) 10 % of control]”.

As for `COc1ccc2c(c1)c(CC(=O)O)c(C)n2C(=O)c1ccc(Cl)cc1` [INDOMETHACIN], the Activity entry in data set [16] was “inhibitor [(at a rough estimate) 5 % of control]”. Regarding `C[C@]12CC[C@H](OS(=O)(=O)O)CC1=CC[C@@H]1[C@@H]2CC[C@]2(C)C(=O)CC[C@@H]12` [PRASTERONE SULFURIC ACID], in data set [17], the Activity entry was “inhibitor [(at a rough estimate) 15 % of control]”. Take `O=C1OC(c2ccc(O)c(S(=O)(=O)[O-])c2)(c2ccc(O)c(S(=O)(=O)[O-])c2)c2c(Br)c(Br)c(Br)c(Br)c21.[Na+].[Na+]` [SULFOBROMOPHTHALEIN SODIUM]: the Activity entry in data set [18] is “inhibitor [(at a rough estimate) <5 % of control]”.

B1: Solute carrier family 22 member 11 (Homo sapiens) (protein)
chain: MAFSKLLEQAGGVGLFQTLQVLTFILPCLMIPSQMLLENFSAAIPGHRCWTHMLDNGSAVSTNMTPKALLTISIPPGPNQGPHQCRRFRQPQWQLLDPNATATSWSEADTEPCVDGWVYDRSVFTSTIVAKWDLVCSSQGLKPLSQSIFMSGILVGSFIWGLLSYRFGRKPMLSWCCLQLAVAGTSTIFAPTFVIYCGLRFVAAFGMAGIFLSSLTLMVEWTTTSRRAVTMTVVGCAFSAGQAALGGLAFALRDWRTLQLAASVPFFAISLISWWLPESARWLIIKGKPDQALQELRKVARINGHKEAKNLTIEVLMSSVKEEVASAKEPRSVLDLFCVPVLRWRSCAMLVVNFSLLISYYGLVFDLQSLGRDIFLLQALFGAVDFLGRATTALLLSFLGRRTIQAGSQAMAGLAILANMLVPQDLQTLRVVFAVLGKGCFGISLTCLTIYKAELFPTPVRMTADGILHTVGRLGAMMGPLILMSRQALPLLPPLLYGVISIASSLVVLFFLPETQGLPLPDTIQDLESQKSTAAQGNRQEAVTVESTSL
With B1, the values for the Km in data set [19] and in data set [20] were 1.01 µM and 0.63 µM, respectively.
